Assay results published in the NIST ThermoML archive (doi:10.1016/j.fluid.2014.04.020).
Numbers after ± are expanded uncertainties.

What was measured:
[1] = Crystal; DTA
[2] = Molar enthalpy of transition or fusion; details: Crystal; DSC

Normal melting temperature [1] [°C]	Molar enthalpy of transition or fusion [2] [kcal/mol]	SMILES
31.10 ± 0.53	6.51 ± 0.287	CCCCCCCCCC(=O)O [decanoic acid]
43.00 ± 0.53	8.48 ± 0.382	CCCCCCCCCCCC(=O)O [dodecanoic acid]
27.80 ± 0.53	14.7 ± 0.645	CCCCCCCCCCCCCCCCCC [octadecane]
